Each compound was assayed on C6/36 Aedes albopictus cell line infected with Wolbachia pipientis (Wolbachia strain wAlbB) (assay: In vitro insect cell line assay (anti-Wolbachia screen, SYTO 11 high content imaging)). Settings: 168 h; C6/36 Aedes albopictus cells infected with Wolbachia pipientis wAlbB, 7 days incubation, SYTO 11 imaging; read-out: In vitro anti-Wolbachia activity.
Format: cell-based
Protocol: A C6/36 Aedes albopictus cell line infected with Wolbachia pipientis (Wolbachia strain wAlbB) derived from Aa23 A. albopictus cell line (O'Neill et al., 1997; Insect Mol Biol; Turner et al., (2006) J. Immunol. 7:1240-1249) was used to screen compounds. Cells were cultured in Leibovitz's L15+L-glutamine supplemented with heat-inactivated Foetal Calf Serum (HI-FCS), non-essential amino acids and tryptose phosphate broth. Culture medium was filter-sterilized through a 0.2 μm filter and stored at 4° C. Compounds were provided as 10 mM stocks in DMSO, diluted to 50 μM working stock to give final concentration of 5 μM on the test plate. Concentrated stocks were frozen at −20° C.
Prior to use in the screening assay, cell cultures were sub-passaged (6 days prior) to provide ˜90% confluent cells on Day 0 of screening assay. On Day 0 (assay set-up), the medium was removed from the stock culture flask and replaced with fresh medium. The cells were detached by scraping and cell density was calculated using an automated cell counter. The cells were then diluted at working density and aliquoted at 90 μl to each well of a Cell Carrier 384 well plate (Perkin Elmer). Cell plates were incubated at 26° C.
Control solution (DMSO-medium) was dispensed at 10 μl per well for “untreated” wells. Test solution (Drug-DMSO) was also dispensed at 10 μl (from working plate) per well for “treated” wells. The plates were incubated at 26° C., inside plastic wallet in incubator, for 7 days.
On Day 7, 25 μl of staining medium/dye (SYTO 11, Life Technologies) was added to each sample well and allowed to stain for 15 minutes in the dark. All the medium was removed from each sample well without disturbing the cells and replaced with 100 μl of fresh medium. Plates were imaged on the Operetta High Content Imaging system (Perkin Elmer) and analyzed using texture analysis through Harmony software (Perkin Elmer). The cell-based screen and analysis are described in detail in Clare et al. (2014) J Biomol Screen.

Structure (SMILES) | EC50 [nM]
CC(C)Nc1nc(NCc2ccccc2)c2sccc2n1 [Example 12, N^4-benzyl-N^2-isopropylthieno[3,2-d]pyrimidine-2,4-diamine] | 1000 to 100000
CC(C)Nc1nc(NCc2cccnc2C(F)(F)F)c2ccccc2n1 [Example 151, N^2-isopropyl-N^4-((2-(trifluoromethyl)pyridin-3-yl)methyl)quinazoline-2,4-diamine] | 100 to 1000
FC(F)(F)c1ccccc1CNc1nc(N2CCOC3CC32)nc2ncccc12 (stereo not drawn) [Example 301, 2-(2-oxa-5-azabicyclo[4.1.0]heptan-5-yl)-N-(2-(trifluoromethyl)benzyl)pyrido[2,3-d)pyrimidin-4-amine] | 0.01 to 1
CC(C)Nc1nc(NCc2cccnc2C(F)(F)F)c2sccc2n1 [Example 153, N^2-isopropyl-N^4-((2-(trifluoromethyl)pyridin-3-yl)methyl)thieno[3,2-d]pyrimidine-2,4-diamine] | 10 to 100
FC(F)(F)c1ncccc1CNc1nc(N2CCCC2C(F)(F)F)nc2ncccc12 (stereo not drawn) [Example 264, N-((2-(trifluoromethyl)pyridin-3-yl)methyl)-2-(2-(trifluoromethyl)pyrrolidin-1-yl)pyrido[2,3-d]pyrimidin-4-amine] | < 0.01
FC(F)(F)Oc1ccccc1CNc1ncnc2ccsc12 [Example 24, N-(2-(trifluoromethoxy)benzyl)thieno[3,2-d]pyrimidin-4-amine] | 100 to 1000
COc1ccccc1CNc1nc(NC(C)C)nc2ccccc12 [Example 139, N^2-isopropyl-N^4-(2-methoxybenzyl)quinazoline-2,4-diamine] | 100 to 1000
FC1(F)CN(c2nc(NCc3cccnc3C(F)(F)F)c3cccnc3n2)CC(F)(F)O1 [Example 295, 2-(2,2,6,6-tetrafluoromorpholino)-N-((2-(trifluoromethyl)pyridin-3-yl)methyl)pyrido[2,3-d]pyrimidin-4-amine] | 10 to 100
Cc1nc(NC(C)c2ccccc2C(F)(F)F)c2sccc2n1 (stereo not drawn) [Example 65, 2-methyl-N-(1-(2-(trifluoromethyl)phenyl)ethyl)thieno[3,2-d]pyrimidin-4-amine] | 10 to 100
FC(F)(F)c1ncccc1CNc1nc(N2CCCCC2C(F)(F)F)nc2ncccc12 (stereo not drawn) [Example 259, 2-(2-(trifluoromethyl)piperidin-1-yl)-N-((2-(trifluoromethyl)pyridin-3-yl)methyl)pyrido[2,3-d]pyrimidin-4-amine] | 0.01 to 1
CC1COCCN1c1nc(N2CCC2c2ccccc2C(F)(F)F)c2cccnc2n1 (stereo not drawn) [Example 214, 3-methyl-4-(4-(2-(2-(trifluoromethyl)phenyl)azetidin-1-yl)pyrido[2,3-d]pyrimidin-2-yl)morpholine] | 0.01 to 1
CC(C)Nc1nc(N2CCCN2c2ccccc2C(F)(F)F)c2cccnc2n1 [Example 189, N-isopropyl-4-(2-(2-(trifluoromethyl)phenyl)pyrazolidin-1-yl)pyrido[2,3-d]pyrimidin-2-amine] | 1000 to 100000
CC(C)Nc1nc(NCc2ccccc2Cl)c2sccc2n1 [Example 17, N^4-(2-chlorobenzyl)-N^2-isopropylthieno[3,2-d]pyrimidine-2,4-diamine] | 10 to 100
FC(F)(F)c1ccccc1CNc1nc(NC2CNC2)nc2ncccc12 [Example 141, N^2-(azetidin-3-yl)-N^4-(2-(trifluoromethyl)benzyl)pyrido[2,3-d]pyrimidine-2,4-diamine] | 100 to 1000
N#CC1CN(c2nc(NCc3cccnc3C(F)(F)F)c3cccnc3n2)CCO1 (stereo not drawn) [Example 257, 4-(4-(((2-(trifluoromethyl)pyridin-3-yl)methyl)amino)pyrido[2,3-d]pyrimidin-2-yl)morpholine-2-carbonitrile] | 10 to 100
C[C@H]1COCCN1c1nc(N2CCC2c2cccnc2C(F)(F)F)c2cccnc2n1 (stereo partly drawn) [Example 289, (3S)-3-methyl-4-(4-(2-(2-(trifluoromethyl)pyridin-3-yl)azetidin-1-yl)pyrido[2,3-d]pyrimidin-2-yl)morpholine] | 0.01 to 1
CC(C)Nc1nc(NCc2ccccc2S(C)(=O)=O)c2ccccc2n1 [Example 112, N^2-isopropyl-N^4-(2-(methylsulfonyl)benzyl)quinazoline-2,4-diamine] | 100 to 1000
FC(F)(F)c1ccccc1CNc1nc(N2CC3CC(C2)O3)nc2ncccc12 [Example 300, 2-(6-oxa-3-azabicyelo[3.1.1]heptan-3-yl)-N-(2-(trifluoromethyl)benzyl)pyrido[2,3-d]pyrimidin-4-amine] | < 0.01

Structure (SMILES) | EC50 [nM]
FC(F)(F)c1ncccc1CNc1nc(CN2CC(C(F)(F)F)C2)nc2ncccc12 [Example 231, 2-((3-(trifluoromethyl)azetidin-1-yl)methyl)-N-((2-(trifluoromethyl)pyridin-3-yl)methyl)pyrido[2,3-d]pyrimidin-4-amine] | 100 to 1000
CC(C)N(C)c1nc(N2CCOCC2c2ccccc2C(F)(F)F)c2cccnc2n1 (stereo not drawn) [Example 188, N-isopropyl-N-methyl-4-(3-(2-(trifluoromethyl)phenyl)morpholino)pyrido[2,3-d]pyrimidin-2-amine] | 1000 to 100000
CC(C)Nc1nc(NCc2ccccc2S(C)(=O)=O)c2sccc2n1 [Example 117, N^2-isopropyl-N^4-(2-(methylsuifonyl)benzyl)thieno[3,2-d]pyrimidine-2,4-diamine] | 100 to 1000
CC1(C#N)CCN(c2nc(NCc3cccnc3C(F)(F)F)c3cccnc3n2)CC1 [Example 250, 4-methyl-1-(4-(((2-(trifluoromethyl)pyridin-3-yl)methyl)amino)pyrido[2,3-d]pyrimidin-2-yl)piperidine-4-carbonitrile] | 0.01 to 1
CN1CC(Nc2nc(NCc3ccccc3C(F)(F)F)c3cccnc3n2)C1 [Example 142, N^2-(1-methylazetidin-3-yl)-N^4-(2-(trifluoromethyl)benzyl)pyrido[2,3-d]pyrimidine-2,4-diamine] | 1000 to 100000
CC1COCCN1Cc1nc(NCc2cccnc2C(F)(F)F)c2cccnc2n1 (stereo not drawn) [Example 229, 2-((3-methylmorpholino)methyl)-N-((2-(trifluoromethyl)pyridin-3-yl)methyl)pyrido[2,3-d]pyrimidin-4-amine] | 1000 to 100000
Fc1ccc(CNc2ncnc3ccsc23)c(C(F)(F)F)c1 [Example 60, N-(4-fluoro-2-(trifluoromethyl)benzyl)thieno[3,2-d]pyrimidin-4-amine] | 10 to 100
FC(F)(F)OC1CCN(c2nc(NCc3cccnc3C(F)(F)F)c3cccnc3n2)C1 (stereo not drawn) [Example 297, 2-(3-(trifluoromethoxy)pyrrolidin-1-yl)-N-((2-(trifluoromethyl)pyridin-3-yl)methyl)pyrido[2,3-d]pyrimidin-4-amine] | < 0.01
Cc1ccc(-c2cnc3ncnc(NCc4cccnc4C(F)(F)F)c3c2)cn1 [Example 181] | 1000 to 100000
COc1cnc2nc(N3CCOCC3C)nc(NCc3cccnc3C(F)(F)F)c2c1 (stereo not drawn) [Example 304] | 1000 to 100000
CN1CCN(CCNc2nc(NCc3ccccc3C(F)(F)F)c3sccc3n2)CC1 [Example 92, N^2-(2-(4-methyipiperazin-1-yl)ethyl)-N^4-(2-(trifluoromethyl)benzyl)thieno[3,2-d]pyrimidine-2,4-diamine] | 1000 to 100000
CC(C)Sc1nc(NCc2cccnc2C(F)(F)F)c2cccnc2n1 [Example 164, 2-(isopropylthio)-N-((2-(trifluoromethyl)pyridin-3-yl)methyl)pyrido[2,3-d]pyrimidin-4-amine] | 1 to 10
CC1(O)CN(c2nc(NCc3cccnc3C(F)(F)F)c3cccnc3n2)C1 [Example 171, 3-methyl-1-(4-(((2-(trifluoromethyl)pyridin-3-yl)methyl)amino)pyrido[2,3-d]pyrimidin-2-yl)azetidin-3-ol] | 100 to 1000
CC(C)Nc1nc(N(C)Cc2ccccc2C(F)(F)F)c2sccc2n1 [Example 50, N^2-isopropyl-N^4-methyl-N^4-(2-(trifluoromethyl)benzyl)thieno[3,2-d]pyrimidine-2,4-diamine] | 10 to 100
Oc1nc(NCc2ccccc2C(F)(F)F)c2cccnc2n1 [Example 157, 4-((2-(trifluoromethyl)benzyl)amino)pyrido[2,3-d]pyrimidin-2-ol] | 1000 to 100000
FC(F)(F)c1ncccc1CNc1nc(N2CCC(Cl)CC2)nc2ncccc12 [Example 199, 2-(4-chloropiperidin-1-yl)-N-((2-(trifluoromethyl)pyridin-3-yl)methyl)pyrido[2,3-d]pyrimidin-4-amine] | 1 to 10
FC1(F)CCN(c2nc(NCc3cccnc3C(F)(F)F)c3cccnc3n2)C1 [Example 194, 2-(3,3-difluoropyrrolidin-1-yl)-N-((2-(trifluoromethyl)pyridin-3-yl)methyl)pyrido[2,3-d]pyrimidin-4-amine] | 1 to 10
CC(C)Nc1nc(NCc2ccc(C#N)cc2)c2sccc2n1 [Example 116, N^4-(4-cyanobenzyl)-N^2-isopropylthieno[3,2-d]pyrimidine-2,4-diamine] | 100 to 1000

Source: patent US11518760B2 (Liverpool School of Tropical Medicine, priority 2017, dated 2022)
